Reference: patent publication USRE32347E, “Hypocalcaemic peptides and process for their manufacture” (Ciba-Geigy Corp., priority 1984, dated 1987)
Ends that are not written are not given here.

What was measured:
blood calcium level = test: rat test described by Kumar et al, J. Endocrinology 33, page 470 [1965] (MRC units); assay type: in vivo; conditions: for result in the rat test according to Kumar et al., in words: compared with HT-C2 / parent peptide
From the text: It lowers the plasma calcium level and plasma phosphate level of the blood of mammals, as can be shown by tests on rats weighing 50 to 150 g. […] It may therefore be used for the treatment of hypercalcaemiae and of bone diseases such as Paget's disease or osteoporosis.

[1] = system: calcium level of the blood; test: calcium level of the blood in patients with increased bone turn over; assay type: in vivo, human; conditions: intravenous, intramuscular or subcutaneous injection of 0.01 to 5 mg, e.g. in 0.1 molar acetate buffer of pH 4.6

Substance | result in the rat test according to Kumar et al., in words (blood calcium level) | other results
HT-C1 sulfoxide: sulfoxide obtained from HT-C1 with 5% hydrogenperoxide (CGNLSTCMLGTYTQDFNKFHTFPQTAIGVGAP; ends and bridges not checked; also: dimer (HT-C1, dimer of HT-C2); UniProt P01258 85-116, looked up) | equally active | 
HT-C1: the dimer of HT-C2; active component of human calcitonin (CGNLSTCMLGTYTQDFNKFHTFPQTAIGVGAP; ends and bridges not checked; also: dimer; UniProt P01258 85-116, looked up) | about as good results as the product obtained in Example 1 (HT-C2) | 
HT-C11: active component of human calcitonin from fractions with K=4.0 (CGNLSTCMLGTYTQDFNKFHTFPQTAIGVGAP; ends and bridges not checked; cysteine pairing not given here; UniProt P01258 85-116, looked up) |  | activity (blood calcium level; in the rat, per mg of peptide): 100-200 MRC units per mg
Human calcitonin |  | calcium level of the blood [1]: lowers
